# The source made the active and inactive calls. The calls are words filed in the database; no cut-off is given here.
# Assays:
# [1] = test system: Hep 3B2; experiment: Cytotoxicity against human Hep3B cells assessed as growth inhibition; format: functional, cell-based
# [2] = test system: HepG2; experiment: Induction of apoptosis in human 3D HepG2 spheroids measured after 24 hrs by propidium iodide staining based immunofluorescence microscopy analysis; format: functional, cell-based
# [3] = test system: HepG2; experiment: Cytotoxicity against human HepG2 cells assessed as reduction in cell viability after 48 to 72 hrs; format: functional, cell-based
# [4] = test system: Huh-7; experiment: Cytotoxicity against human HuH7 cells assessed as reduction in cell viability measured after 24 hrs by MTT assay; format: functional, cell-based; details: Huh-7, 24 h
# [5] = test system: HepG2; experiment: Cytotoxicity against human HepG2 cells assessed as reduction in cell viability measured after 48 hrs by MTT assay; format: functional, cell-based; details: HepG2, 48 h
# [6] = test system: HepG2; experiment: Cytotoxicity against human HepG2 cells assessed as reduction in cell viability measured after 24 hrs by MTT assay; format: functional, cell-based; details: HepG2, 24 h
# [7] = test system: HepG2; experiment: Cytotoxicity against human HepG2 cells assessed as reduction in cell viability measured after 72 hrs by MTT assay; format: functional, cell-based; details: HepG2, 72 h
# [8] = test system: Huh-7; experiment: Cytotoxicity against human HuH7 cells assessed as reduction in cell viability measured after 48 hrs by MTT assay; format: functional, cell-based; details: Huh-7, 48 h
# [9] = test system: Huh-7; experiment: Cytotoxicity against human HuH7 cells assessed as reduction in cell viability measured after 72 hrs by MTT assay; format: functional, cell-based; details: Huh-7, 72 h
# [10] = molecular target: T1, NAD-dependent protein deacetylase sirtuin-1 (Homo sapiens) (UniProt Q96EB6); experiment: Inhibition of human recombinant SIRT1 at 10 uM using FLUOR DE LYS SIRT1, deacetylase as substrate preincubated for 2 mins followed by substrate addition measured after 1 hr in presence of NAD+ by fluorescence assay relative to control
# T1 sequence (whole entry): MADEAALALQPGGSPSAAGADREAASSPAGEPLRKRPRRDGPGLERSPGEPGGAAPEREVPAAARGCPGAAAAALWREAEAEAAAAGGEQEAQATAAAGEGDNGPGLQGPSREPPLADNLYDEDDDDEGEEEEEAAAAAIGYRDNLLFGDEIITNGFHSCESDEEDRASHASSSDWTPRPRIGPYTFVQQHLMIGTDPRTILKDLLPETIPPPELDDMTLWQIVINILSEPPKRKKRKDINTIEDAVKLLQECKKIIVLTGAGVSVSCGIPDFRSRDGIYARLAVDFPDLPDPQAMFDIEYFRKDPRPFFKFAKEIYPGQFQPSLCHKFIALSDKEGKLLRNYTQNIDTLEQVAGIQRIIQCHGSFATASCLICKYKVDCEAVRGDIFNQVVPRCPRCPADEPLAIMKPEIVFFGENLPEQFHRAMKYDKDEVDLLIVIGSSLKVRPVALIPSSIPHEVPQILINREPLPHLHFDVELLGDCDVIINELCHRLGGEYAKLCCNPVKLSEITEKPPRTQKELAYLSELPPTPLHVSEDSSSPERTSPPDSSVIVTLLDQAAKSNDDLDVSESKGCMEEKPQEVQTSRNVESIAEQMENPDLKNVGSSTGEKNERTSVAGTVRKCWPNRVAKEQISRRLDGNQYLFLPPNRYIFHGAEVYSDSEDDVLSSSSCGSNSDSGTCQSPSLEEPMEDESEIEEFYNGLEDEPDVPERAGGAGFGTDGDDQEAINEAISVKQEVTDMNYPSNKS
# [11] = molecular target: T1, NAD-dependent protein deacetylase sirtuin-1 (Homo sapiens); experiment: Inhibition of human recombinant SIRT1 at 100 uM using FLUOR DE LYS SIRT1, deacetylase as substrate preincubated for 2 mins followed by substrate addition measured after 1 hr in presence of NAD+ by fluorescence assay relative to control
# [12] = molecular target: Exportin-1 (Homo sapiens) (UniProt O14980); experiment: Inhibition of CRM1 in human HuH7 cells assessed as accumulation of RIOK2 in nucleus at 1 and 10 uM measured after 24 hrs by DAPI staining based confocal microscopy analysis; format: cell-based
# [13] = molecular target: Exportin-1 (Homo sapiens) (UniProt O14980); experiment: Inhibition of CRM1 in human HuH7 cells assessed as accumulation of RIOK2 in nucleus at 0.1 to 10 uM measured after 6 hrs by DAPI staining based confocal microscopy analysis; format: cell-based
# [14] = test system: HepG2; experiment: Induction of apoptosis in human 3D HepG2 spheroids at 10 uM measured after 24 hrs by propidium iodide staining based immunofluorescence microscopy analysis; format: functional, cell-based
# Exportin-1 (Homo sapiens), sequence (O14980 whole entry): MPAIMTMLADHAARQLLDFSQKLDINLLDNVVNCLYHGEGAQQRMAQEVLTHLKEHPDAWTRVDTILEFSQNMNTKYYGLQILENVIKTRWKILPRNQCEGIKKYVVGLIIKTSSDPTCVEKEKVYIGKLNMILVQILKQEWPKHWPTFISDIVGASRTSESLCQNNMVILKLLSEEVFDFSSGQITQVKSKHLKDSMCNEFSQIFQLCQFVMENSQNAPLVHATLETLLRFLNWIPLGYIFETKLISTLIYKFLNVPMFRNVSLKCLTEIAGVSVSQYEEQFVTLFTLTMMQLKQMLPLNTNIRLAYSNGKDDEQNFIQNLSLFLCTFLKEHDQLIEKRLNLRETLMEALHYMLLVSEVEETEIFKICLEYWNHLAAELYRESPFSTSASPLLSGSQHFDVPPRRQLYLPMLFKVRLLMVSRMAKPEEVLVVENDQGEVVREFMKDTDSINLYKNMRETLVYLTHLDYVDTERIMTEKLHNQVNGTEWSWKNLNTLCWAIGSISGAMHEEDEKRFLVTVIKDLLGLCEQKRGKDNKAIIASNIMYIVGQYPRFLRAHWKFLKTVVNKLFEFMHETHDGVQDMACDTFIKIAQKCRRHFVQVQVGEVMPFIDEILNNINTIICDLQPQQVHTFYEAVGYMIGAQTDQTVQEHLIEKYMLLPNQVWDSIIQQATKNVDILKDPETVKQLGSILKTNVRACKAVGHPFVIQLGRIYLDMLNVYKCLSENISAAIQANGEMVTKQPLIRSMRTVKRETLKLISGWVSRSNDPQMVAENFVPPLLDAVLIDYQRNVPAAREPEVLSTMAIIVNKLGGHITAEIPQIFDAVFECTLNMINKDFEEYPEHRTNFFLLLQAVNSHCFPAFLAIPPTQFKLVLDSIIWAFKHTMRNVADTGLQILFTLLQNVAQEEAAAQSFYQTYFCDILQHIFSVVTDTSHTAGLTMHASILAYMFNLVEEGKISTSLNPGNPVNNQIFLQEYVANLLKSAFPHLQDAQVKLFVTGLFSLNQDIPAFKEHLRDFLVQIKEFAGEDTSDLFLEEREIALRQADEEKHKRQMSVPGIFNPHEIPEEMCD
inhibition [10] [%],inhibition [11] [%],inhibition [12],inhibition [13],Compound,IC50 [1] [nM],Activity [2],IC50 [3] [nM],IC50 [4] [nM],IC50 [5] [nM],IC50 [6] [nM],IC50 [7] [nM],IC50 [8] [nM],IC50 [9] [nM],Activity [14]
,,,,O=C1C=CC[C@H](/C=C/c2ccccc2)O1 [GONIOTHALAMIN],5400,Active,625 to 2500,,,,,,,
17,65,Active,Active,O=C1C=CCC(c2cc3c(c4ccccc24)CCCC3)O1 (racemic),,,,5000,625,5000,100,2500,1250,Active
